Test results published in ChEMBL document CHEMBL5634141 (Eur J Med Chem, 2023).
Active and inactive are the calls of the source. No cut-off for these calls is given here.

Legend:
NCI-H358 [1] = assay: Antiproliferative activity against human NCI-H358 cells expressing KRAS G12C mutant assessed as reduction of cell growth by measuring fold decrease in IC50 incubated for 72 hrs in presence of SHP099 by CCK-8 assay; format: functional
NCI-H358 [2] = assay: Synergistic antiproliferative activity against human NCI-H358 cells expressing KRAS G12C mutant assessed as combination index at 30 nM incubated for 72 hrs in presence of […] by CCK-8 assay; format: functional
[3] = test system: von Hippel-Lindau disease tumor suppressor/GTPase KRas (Homo sapiens), P01116+P40337 [G12C]; assay: PROTAC activity at VHL/KRAS G12C mutant in human NCI-H358 cells assessed as induction of protein degradation at 100 nM preincubated with AMG510 for 6 hrs followed by compound addition and measured after 48 hrs by Western blotting analysis; format: cell-based
[4] = test system: von Hippel-Lindau disease tumor suppressor/GTPase KRas (Homo sapiens), P01116+P40337 [G12C]; assay: PROTAC activity at VHL/KRAS G12C mutant in human NCI-H358 cells assessed as inhibition of ERK phosphorylation at 100 nM incubated for 1 to 8 days by Western blotting analysis; format: cell-based; settings: time 1-8 day
SW837 [5] = assay: Antiproliferative activity against human SW837 cells expressing KRAS G12C mutant assessed as relative cell viability at 30 nM incubated for 72 hrs in presence of daclolisib by CCK-8 assay; format: functional; settings: read-out: Activity
[6] = test system: von Hippel-Lindau disease tumor suppressor/GTPase KRas (Homo sapiens), P01116+P40337 [G12C]; assay: PROTAC activity at VHL/KRAS G12C mutant in human NCI-H358 cells assessed as induction of protein degradation at 300 nM incubated for 6 hrs by Western blotting analysis relative to control; format: cell-based
MIA PaCa-2 [7] = assay: Antiproliferative activity against human MIA PaCa-2 cells expressing KRAS G12C mutant assessed as relative cell viability at 30 nM incubated for 72 hrs by CCK-8 assay; format: functional; settings: read-out: Activity
MIA PaCa-2 [8] = assay: Antitumor activity against human MIA PaCa-2 cells xenografted in BALB/c nude mouse assessed as tumor growth inhibition at 30 mg/kg, ip measured after 16 days relative to control; format: functional; settings: MIA PaCa-2, 384 h, time 16 day, read-out: TGI
NCI-H358 [9] = assay: Synergistic antiproliferative activity against human NCI-H358 cells expressing KRAS G12C mutant assessed as combination index at 30 nM incubated for 72 hrs in presence of selumetinib by CCK-8 assay; format: functional
Calu-1 [10] = assay: Antiproliferative activity against human Calu-1 cells expressing KRAS G12C mutant assessed as relative cell viability at 30 nM incubated for 72 hrs by CCK-8 assay; format: functional; settings: Calu-1, read-out: Activity
SW837 [11] = assay: Antiproliferative activity against human SW837 cells expressing KRAS G12C mutant assessed as relative cell viability at 30 nM incubated for 72 hrs by CCK-8 assay; format: functional; settings: read-out: Activity
[12] = test system: von Hippel-Lindau disease tumor suppressor/GTPase KRas (Homo sapiens), P01116+P40337 [G12C]; assay: PROTAC activity at VHL/KRAS G12C mutant in human MIA PaCa-2 cells assessed as induction of protein degradation at 100 nM incubated for 48 hrs followed by compound washout by Western blotting analysis; format: cell-based
NCI-H358 [13] = assay: Induction of apoptosis in human NCI-H358 cells assessed as late apoptotic cells at 100 nM incubated for 48 hrs by Annexin V-FITC staining based flow cytometry analysis (reference value: 5.20 %); format: functional
MIA PaCa-2 [14] = assay: Antiproliferative activity against human MIA PaCa-2 cells expressing KRAS G12C mutant assessed as relative cell viability at 30 nM incubated for 72 hrs in presence of selumetinib by CCK-8 assay; format: functional; settings: read-out: Activity
MIA PaCa-2 [15] = assay: Inhibition of colony formation in human MIA PaCa-2 cells expressing KRAS G12C mutant assessed as reduction in cell number at 30 nM incubated for 14 days in presence of AZD4573 by crystal violet staining based analysis; format: functional; settings: time 14.0 day
NCI-H23 [16] = assay: Antiproliferative activity against human NCI-H23 cells expressing KRAS G12C mutant assessed as relative cell viability at 30 nM incubated for 72 hrs by CCK-8 assay; format: functional; settings: read-out: Activity
Calu-1 [17] = assay: Antiproliferative activity against human Calu-1 cells expressing KRAS G12C mutant assessed as relative cell viability at 30 nM incubated for 72 hrs in presence of naporafenib by CCK-8 assay; format: functional; settings: read-out: Activity
MIA PaCa-2 [18] = assay: Antitumor activity against human MIA PaCa-2 cells xenografted in BALB/c nude mouse assessed as reduction in number of tumor foci at 10 to 30 mg/kg, ip administered for 16 days by hematoxylin and eosin staining based analysis; format: functional, organism-based; settings: dose 10-30 mg/kg, time 16.0 day
NCI-H23 [19] = assay: Antiproliferative activity against human NCI-H23 cells expressing KRAS G12C mutant assessed as relative cell viability at 30 nM incubated for 72 hrs in presence of daclolisib by CCK-8 assay; format: functional; settings: read-out: Activity
[20] = test system: von Hippel-Lindau disease tumor suppressor/GTPase KRas (Homo sapiens), P01116+P40337 [G12C]; assay: PROTAC activity at VHL/KRAS G12C mutant in human NCI-H358 cells assessed as induction of protein degradation at 100 nM preincubated with MLN4924 for 6 hrs followed by compound addition and measured after 48 hrs by Western blotting analysis; format: cell-based
MIA PaCa-2 [21] = assay: Antiproliferative activity against human MIA PaCa-2 cells expressing KRAS G12C mutant assessed as relative cell viability at 30 nM incubated for 72 hrs in presence of naporafenib by CCK-8 assay; format: functional; settings: read-out: Activity
NCI-H23 [22] = assay: Antiproliferative activity against human NCI-H23 cells expressing KRAS G12C mutant assessed as relative cell viability at 30 nM incubated for 72 hrs in presence of infigratinib by CCK-8 assay; format: functional; settings: read-out: Activity
[23] = test system: von Hippel-Lindau disease tumor suppressor/GTPase KRas (Homo sapiens), P01116+P40337 [G12C]; assay: (§1) PROTAC activity at VHL/KRAS G12C mutant in human MIA PaCa-2 cells assessed as induction of protein degradation by Western blotting analysis; format: cell-based
[24] = target: von Hippel-Lindau disease tumor suppressor/GTPase KRas (Homo sapiens, UniProt P01116+P40337, G12C); assay: as §1; format: cell-based
NCI-H358 [25] = assay: Inhibition of colony formation in human NCI-H358 cells expressing KRAS G12C mutant assessed as reduction in cell number at 30 nM incubated for 14 days in presence of SHP099 by crystal violet staining based analysis; format: functional; settings: time 14.0 day
NCI-H23 [26] = assay: Antiproliferative activity against human NCI-H23 cells expressing KRAS G12C mutant assessed as relative cell viability at 30 nM incubated for 72 hrs in presence of MK-2206 by CCK-8 assay; format: functional; settings: read-out: Activity
SW837 [27] = assay: Antiproliferative activity against human SW837 cells expressing KRAS G12C mutant assessed as relative cell viability at 30 nM incubated for 72 hrs in presence of naporafenib by CCK-8 assay; format: functional; settings: read-out: Activity
MIA PaCa-2 [28] = assay: Antitumor activity against human MIA PaCa-2 cells xenografted in BALB/c nude mouse assessed as reduction in percentage of Ki67-positive cells at 10 to 30 mg/kg, ip administered for 16 days by immunohistochemical staining analysis; format: functional, organism-based; settings: dose 10-30 mg/kg, time 16.0 day
NCI-H358 [29] = assay: Inhibition of colony formation in human NCI-H358 cells expressing KRAS G12C mutant assessed as reduction in cell number at 30 nM incubated for 14 days in presence of AZD4573 by crystal violet staining based analysis; format: functional; settings: time 14.0 day
MIA PaCa-2 [30] = assay: Induction of apoptosis in human MIA PaCa-2 cells assessed as viable cells at 100 nM incubated for 48 hrs by Annexin V-FITC staining based flow cytometry analysis (reference value: 91.5 %); format: functional; settings: read-out: Activity

Sequence of von Hippel-Lindau disease tumor suppressor/GTPase KRas (P01116 whole entry G12C, stated change not applied): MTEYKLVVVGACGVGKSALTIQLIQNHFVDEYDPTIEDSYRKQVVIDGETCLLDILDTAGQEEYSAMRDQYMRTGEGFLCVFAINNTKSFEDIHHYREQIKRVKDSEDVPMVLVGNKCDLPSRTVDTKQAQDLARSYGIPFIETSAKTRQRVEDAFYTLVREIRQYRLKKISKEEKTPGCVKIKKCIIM
Sequence of von Hippel-Lindau disease tumor suppressor/GTPase KRas (P40337 whole entry, stated change not applied): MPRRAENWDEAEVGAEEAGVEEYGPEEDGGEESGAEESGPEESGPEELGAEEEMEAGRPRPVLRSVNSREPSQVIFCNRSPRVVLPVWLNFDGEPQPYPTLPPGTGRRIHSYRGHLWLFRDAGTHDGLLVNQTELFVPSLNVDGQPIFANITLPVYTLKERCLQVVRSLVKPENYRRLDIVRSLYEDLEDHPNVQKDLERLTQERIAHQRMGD

In the case of `C=CC(=O)N1CCN(c2nc(=O)n(-c3c(C)ccnc3C(C)C)c3nc(-c4c(F)cccc4OCC4CCN(CCCC(=O)N[C@H](C(=O)N5C[C@H](O)C[C@H]5C(=O)NCc5ccc(-c6scnc6C)cc5)C(C)(C)C)CC4)c(F)cc23)[C@@H](C)C1`, the “fold change (FC)” value (NCI-H358 [1]) is reported as ~4, the CI (NCI-H358 [2]) is reported as <1 and the Activity [3] is reported as “inactive”. For the same compound, the Activity [4] was “Active”, the viability at 0.03 µM (SW837 [5]) was 0.24% and the Activity [6] was 50%. For the same compound, the viability at 0.03 µM (MIA PaCa-2 [7]) was 0.71%, the inhibition in vivo at 30 mg/kg (MIA PaCa-2 [8]) was 100% and the CI (NCI-H358 [9]) was <1. The viability at 0.03 µM (Calu-1 [10]) was 77%, the viability at 0.03 µM (SW837 [11]) was 0.77% and the Activity [12] was “Active”. For the same compound, the Activity (NCI-H358 [13]) was 10%, the viability at 0.03 µM (MIA PaCa-2 [14]) was 0.1% and the inhibition (MIA PaCa-2 [15]) was “Active”. The viability at 0.03 µM (NCI-H23 [16]) was 0.85%, the viability at 0.03 µM (Calu-1 [17]) was 0.44% and the Activity (MIA PaCa-2 [18]) was “Active”. For the same compound, the viability at 0.03 µM (NCI-H23 [19]) was 0.23%, the Activity [20] was “inactive” and the viability at 0.03 µM (MIA PaCa-2 [21]) was 0.27%. For the same compound, the viability at 0.03 µM (NCI-H23 [22]) was 0.41%, the Activity [23] was “Dose-Dependent Effect” and the DC50 [24] was 28 nM. For the same compound, the inhibition (NCI-H358 [25]) was “Active”, the viability at 0.03 µM (NCI-H23 [26]) was 0.44% and the viability at 0.03 µM (SW837 [27]) was 0.32%. The Activity (MIA PaCa-2 [28]) was “Active”, the inhibition (NCI-H358 [29]) was “Active” and the viability at 0.1 µM (MIA PaCa-2 [30]) was 75.7%.
